The results in this text go back to US10294262B2, “7-deazapurine nucleosides for therapeutic uses” (Institute of Organic Chemistry and Biochemistry ASCR, V.V.I., priority 2009, dated 2019).

Read-outs that look alike come from different tables or passages of the source.

For data set [1], the system named is HCT116. The data set is described as follows: Test A: Cytostatic cell culture assay (CC50), SRB, solid tumor cell lines. To be noted: Homo sapiens, HCT-116, 120 h, read-out: CC50 Colon HCT116. It counts as cell-based. The method, then:
(§1) Gemcitabine is obtained from Moravek Biochemicals (Brea, Calif.)
(§2) • 1. […] Fix one plate of each cell line with TCA. […] Discard TCA from the plates by flicking them gently. […] Store the plates at room temperature. These plates represent cell counts on day zero. • 4. […] Add 50 μL of the diluted compounds per well. […] Fix the plates with TCA. […] Discard TCA from the plates by flicking them gently. […] Leave at room temperature for 30 minutes. • 9. Flick the plates gently to discard SRB.

Data set [2] deals with HS578. The data set is described as above. It counts as cell-based. The settings on record: Homo sapiens, Hs578, 120 h, read-out: CC50 Breast HS578. The method, then: as §1, §2
Data set [3] deals with NCI H23. Described as above. The settings on record: Homo sapiens, NCI-H23, 120 h, read-out: CC50 Lung NCI H23. It counts as cell-based. Here is the method: as §1, §2
Data set [4] has as its system PC3. The data set is described as above. It counts as cell-based. To be noted: Homo sapiens, PC-3, 120 h, read-out: CC50 Prostate PC3. Here is the method: as §1, §2
In data set [5] the test system is human tumor cell lines. The data set is described as follows: Tests A and B, all tumor cell lines together. It counts as cell-based. The settings on record: read-out: CC50 Geometric mean all. Here is the method:
as §2
Plates were incubated for 5 days with tested compounds.

Data set [6] has as its system MT-4 T-lymphoid cell line. The data set is described as follows: Test B: Cytostatic cell culture assay (CC50), CellTiter Glo, lymphoid tumor cell lines. The settings on record: Homo sapiens, MT4, 120 h, read-out: CC50 T-lymphoid MT-4.
Description: Test B: Cytostatic Cell Culture Assay (CC50) for Lymphoid Tumor Cell Lines
This test is typically performed with cell lines that are derived from hematological tumors and grow in suspension. An example of such cell line is human MT-4 T-lymphoid cell line used for the determination of cytostatic activity of tested compounds. […] Cells were passaged in suspension twice a week and maintained at densities below 500,000 cells/mL. For CC50 determination, cells were seeded into 384-well plates at 2,000 cells/well in 20 μL of culture medium. Compounds were serially diluted in culture medium and added in triplicate to a final assay volume of 40 μL/well. Plates were incubated for 5 days with tested compounds. At the end of incubation, cell viability was determined by addition of 40 μL of CellTiter Glo reagent followed by a luminescence read-out.
Data analysis and CC50 value calculations were done using GraphPad Prism software (GraphPad Software, San Diego, Calif.) by applying nonlinear regression.
For data set [7], the system named is A549. Briefly: Test A: Cytostatic cell culture assay (CC50), SRB, solid tumor cell lines. To be noted: Homo sapiens, A549, 120 h, read-out: CC50 Lung A549. From the text:
Test A: Cytostatic Cell Culture Assay (CC50) for Solid Tumor Cell Lines
This assay is based on quantification of cell mass determination by a colorimetric detection of the cell associated proteins. The assay relies on the ability of sulforhodamine B (SRB) to bind to protein components of cells that have been fixed to tissue-culture plates by trichloroacetic acid (TCA). SRB is a bright-pink aminoxanthene dye with two sulfonic groups that bind to basic amino-acid residues under mild acidic conditions, and dissociate under basic conditions. As the binding of SRB is stochiometric, the amount of dye extracted from stained cells is directly proportional to the cell mass.
Cell lines: All cell lines are obtained from ATCC (Manassas, Va.). Cultivation media containing Glutamax, and trypsin are purchased from Invitrogen (Carlsbad, Calif.). Doxorubicin, Tubercidin, Clofarabine, TCA and SRB are from Sigma-Aldrich (St. Louis, Mo.). Gemcitabine is obtained from Moravek Biochemicals (Brea, Calif.)
• 1. Trypsinize the sub-confluent cells, count them, and adjust the cell concentrations according to the cell counts listed in Table 1. • 2. Distribute the cells into the 96-well plates in 150 μL of media. Incubate the plates overnight in humidified CO2 incubator at 37° C. • 3. Fix one plate of each cell line with TCA. Discard the cultivation media from the plates by flicking them gently and add 100 μL cold 10% (vol/vol) TCA to each well. Incubate the plates at 4 degree refrigerator for 1 hour. Discard TCA from the plates by flicking them gently. Rinse plates four times in a washing basin containing tap water. Store the plates at room temperature. These plates represent cell counts on day zero. • 4. Prepare a set of medium solutions containing various concentrations of tested compounds by making 5-fold serial dilutions in 96-well plate. Add 50 μL of the diluted compounds per well. Include controls with untreated cells and cells treated with doxorubicin, tubercidin, clofarabine and/or gemcitabine. • 5. Incubate the plates for 5 days at 37° C. • 6. Fix the plates with TCA. Discard the cultivation media from the plates by flicking them gently and add 100 μL cold 10% (vol/vol) TCA to each well. Incubate the plates at 4 degree refrigerator for 1 hour. Discard TCA from the plates by flicking them gently. Rinse plates four times in a washing basin containing tap water. • 7. Remove excess water by tapping the plates face down, gently on a paper towel. Allow the plates to air-dry at room temperature. • 8. Add 100 μL of 0.057% SRB solution in 1% (vol/vol) acetic acid to each well of the plates fixed with TCA on day zero and five. Leave at room temperature for 30 minutes. • 9. Flick the plates gently to discard SRB. Rinse the plates four times with 1% (vol/vol) Acetic Acid. • 10. Store the plates at 37° incubator to facilitate faster drying. • 11. Once the plates are completely dry, add 200 μL of 10 mM Tris base solution (pH 10.5) to each well. Leave at room temperature for 30 minutes for SRB to solubilize. • 12. Measure the OD at 500 nm in a microplate reader. • 13. Calculate the percentage of cell-growth inhibition using the next formula: % of control cell growth=100×(ODsample−mean ODday0)/(ODneg control−mean ODday0). For CC50 determination, plot a dose-response curves between the compound concentration and percent of growth inhibition. CC50 values can be derived by fitting dose-response curves using sigmoidal dose response equation.

Data set [8] has as its system BT549. The data set is described as above. It counts as cell-based. To be noted: Homo sapiens, BT-549, 120 h, read-out: CC50 Breast BT549. Here is the method: as §1, §2
The subject of data set [9] is Du145. Described as above. Type of data set: cell-based. The settings on record: Homo sapiens, DU-145, 120 h, read-out: CC50 Prostate Du145. Here is the method:
as §1, §2

[10] abbreviates: BT549 breast tumor cells, 5 days, SRB.

`C#Cc1cn([C@@H]2O[C@H](CO)[C@@H](O)[C@H]2O)c2ncnc(N)c12` [Compound 2o, 4-Amino-5-ethynyl-7-(β-D-ribofuranosyl)-7H-pyrrolo[2,3-d]pyrimidine]: the 50% cytotoxic concentration (CC50) in [1] is 0.002 µM; in data set [2], 0.001 µM; in data set [3] it was 0.001 µM; in [4], 0.011 µM; in data set [5] it was 0.0019 µM; in data set [6], 0.001 µM.
Turning to `Nc1ncnc2c1c(-c1cn[nH]c1)cn2[C@@H]1O[C@H](CO)[C@@H](O)[C@H]1O` [Compound 2m, 4-Amino-5-(1H-pyrazol-4-yl)-7-(β-D-ribofuranosyl)-7H-pyrrolo[2,3-d]pyrimidine], the CC50 in data set [7] came to 0.192 µM; in data set [8] (setting [10]) it was 0.05 µM; in data set [1] it was 0.97 µM; in data set [2], 0.012 µM; in data set [3], 0.144 µM; in data set [4], 0.014 µM. The results for the CC50 in data set [5] and in data set [6] were 0.0819 µM and 0.11 µM, respectively.
Turning to `CSc1ccc(-c2cn([C@@H]3O[C@H](CO)[C@@H](O)[C@H]3O)c3ncnc(N)c23)cc1` [Compound 2c, 4-Amino-5-[4-(methylthio)phenyl]-7-(β-D-ribofuranosyl)-7H-pyrrolo[2,3-d]pyrimidine], the CC50 in [9] came out at 1.87 µM; in data set [1] it was 1.29 µM; in data set [2], 1.97 µM; in data set [3], 0.39 µM; in data set [5], 1.52 µM; in data set [6], 4.4 µM.
For `Nc1ncnc2c1c(-c1c[nH]cn1)cn2[C@@H]1O[C@H](CO)[C@@H](O)[C@H]1O` [Compound 2r, 4-Amino-5-(1H-imidazol-4-yl)-7-(β-D-ribofuranosyl)-7H-pyrrolo[2,3-d]pyrimidine], the CC50 in data set [1] was found to be 0.003 µM; in data set [2] it was 0.002 µM; in [3] it was 0.002 µM; in data set [4] it was 0.002 µM; in data set [5], 0.0038 µM; in data set [6], 0.028 µM.
In the case of `COc1cccc2c1C(=O)c1c(O)c3c(c(O)c1C2=O)C[C@@](O)(C(=O)CO)C[C@@H]3O[C@H]1C[C@H](N)[C@H](O)[C@H](C)O1` [Doxorubicine, reference compound], the CC50 in data set [7] is 0.016 µM; in data set [8] (setting [10]), 0.01 µM; in [1], 0.011 µM; in [2], 0.006 µM; in data set [3], 0.005 µM; in data set [4], 0.021 µM. For the same compound, the half-maximal cytotoxic concentration (CC50) in data set [5] is 0.0101 µM.
In the case of `Nc1ncnc2c1c(-c1cccc3ccccc13)cn2[C@@H]1O[C@H](CO)C(O)C1O` (stereo partly drawn) [Compound 2d, 4-Amino-5-(naphtalen-1-yl)-7-(β-D-ribofuranosyl)-7H-pyrrolo[2,3-d]pyrimidine], the CC50 in data set [9], in data set [1], in data set [2], in data set [3] and in data set [5] was greater than 10 µM each time.
As to `Nc1ncnc2c1c(-c1ccc3ccccc3c1)cn2[C@@H]1O[C@H](CO)C(O)C1O` (stereo partly drawn) [Compound 2e, 4-Amino-5-(naphtalen-2-yl)-7-(β-D-ribofuranosyl)-7H-pyrrolo[2,3-d]pyrimidine], the half-maximal cytotoxic concentration (CC50) amounted to 1.05 µM in [9]; 5.67 µM in data set [1]; 2.16 µM in data set [2]; 5.35 µM in data set [3]; 2.88 µM in [5].
`C[C@@]1(O)[C@H](O)[C@@H](CO)O[C@H]1n1cc(-c2ccccc2)c2c(N)ncnc21` [Compound 7a, 4-Amino-7-(2-C-methyl-β-D-ribofuranosyl)-5-phenyl-7H-pyrrolo[2,3-d]pyrimidine] registered a melting point of 129 °C.
On to `Nc1ncnc2c1c(-c1cc[nH]c1)cn2[C@@H]1O[C@H](CO)[C@@H](O)[C@H]1O` [Compound 2l, 4-Amino-5-(1H-pyrrol-3-yl)-7-(β-D-ribofuranosyl)-7H-pyrrolo[2,3-d]pyrimidine], for which the 50% cytotoxic concentration (CC50) in data set [7] was 0.0053 µM; in data set [8] (setting [10]), 0.008 µM; in [1], 0.0059 µM; in data set [2] it was 0.0044 µM; in data set [3], 0.033 µM; in [4], 0.029 µM. Moreover, the results for the CC50 in data set [5] and in data set [6] were 0.0114 µM and 0.024 µM, respectively.
For the compound `Nc1ncnc2c1c(-c1ccsc1)cn2[C@@H]1O[C@H](CO)[C@@H](O)[C@H]1O` [Compound 2i, 4-Amino-7-(β-D-ribofuranosyl)-5-(thiophen-3-yl)-7H-pyrrolo[2,3-d]pyrimidine], the cytotoxic concentration (CC50) amounted to 0.016 µM in [7]; 0.028 µM in [8] (setting [10]); 0.097 µM in [9]; 0.007 µM in data set [1]; 0.05 µM in data set [2]; 0.073 µM in [3]. The CC50 in [4] was determined as 1.32 µM; in data set [5], 0.0607 µM; in [6], 0.124 µM.
As for `Nc1ncnc2c1c(-c1cc3ccccc3o1)cn2[C@@H]1O[C@H](CO)[C@@H](O)[C@H]1O` [Compound 2j, 4-Amino-5-(benzofuran-2-yl)-7-(β-D-ribofuranosyl)-7H-pyrrolo[2,3-d]pyrimidine], the cytotoxic concentration (CC50) in data set [7] is 7.02 µM; in data set [8], greater than 10 µM; in data set [1], 3.74 µM; in data set [2], 6.73 µM; in data set [3], 5.4 µM; in data set [4], 6.29 µM. Further, the CC50 in data set [5] came out at 5.54 µM; in [6] it was 4.8 µM.
For `Nc1ncnc2c1c(-c1ccoc1)cn2[C@@H]1O[C@H](CO)[C@@H](O)[C@H]1O` [Compound 2h, 4-Amino-5-(furan-3-yl)-7-(β-D-ribofuranosyl)-7H-pyrrolo[2,3-d]pyrimidine], the CC50 in data set [7] came to 0.034 µM; in data set [8] (setting [10]), 0.028 µM; in [9], 0.33 µM; in [1], 0.015 µM; in [2], 0.021 µM; in data set [3], 0.198 µM. Besides, the figures for the CC50 in [4], in data set [5] and in [6] were 0.418 µM, 0.0781 µM and 0.17 µM, respectively.
`COc1ccc(-c2cn([C@@H]3O[C@H](CO)[C@@H](O)[C@@]3(C)O)c3ncnc(N)c23)cc1` [Compound 7b, 4-Amino-5-(4-methoxyphenyl)-7-(2-C-methyl-β-D-ribofuranosyl)-7H-pyrrolo[2,3-d]pyrimidine] yielded a melting point of 127 °C.
Regarding `Nc1ncnc2c1c(-c1nccs1)cn2[C@@H]1O[C@H](CO)[C@@H](O)[C@H]1O` [Compound 2q, 4-Amino-7-(β-D-ribofuranosyl)-5-(thiazol-2-yl)-7H-pyrrolo[2,3-d]pyrimidine], the CC50 in data set [1] is 0.093 µM; in data set [2], 0.015 µM; in data set [3], 0.005 µM; in data set [4], 0.042 µM; in data set [5], 0.0256 µM; in data set [6] it was 0.042 µM.

Broadly, the CC50 is the concentration giving 50% cytotoxicity. What is called melting point is the temperature of the solid-liquid transition.
